Calls of active or inactive are those of the source. No cut-off for these calls is given here.
Experiments:
HeLa [1] = test: Induction of apoptosis in human HeLa cells assessed as necrotic cells at 0.9 uM incubated for 24 hrs by PI staining based flow cytometry (reference value: 25.5 %); type: functional
[2] = Tmax in Sprague-Dawley rat at 2 mg/kg, iv measured for 36 hrs by MRM analysis; type: ADME, organism-based; settings: in vivo
HeLa [3] = test: Induction of cell cycle arrest in human HeLa cells assessed as accumulation at G1/G0 phase at 1.8 uM incubated for 24 hrs by PI staining based flow cytometry (reference value: 57.63 +/- 1.7 %); type: functional
HCT-116 [4] = test: Induction of cell cycle arrest at G2/M phase in human HCT-116 cells assessed as decrease in cyclin B1 level incubated for 48 hrs by Western blot analysis; type: functional, cell-based; settings: dose <= 0.8 µM
[5] = AUC (0 to t) in Sprague-Dawley rat at 10 mg/kg, po measured for 36 hrs by MRM analysis; type: ADME, organism-based; settings: in vivo
[6] = MRT (0 to t) in Sprague-Dawley rat at 10 mg/kg, po measured for 36 hrs by MRM analysis; type: ADME, organism-based; settings: in vivo
[7] = molecular target: Cyclin-dependent kinase 5/CDK5 activator 1 (Homo sapiens, UniProt Q00535); test: Inhibition of CDK5/p35 (unknown origin) using […] incubated for 40 mins in presence of ATP by Kinase-Glo assay; type: protein-complex assay
HCT-116 [8] = test: Induction of cell cycle arrest in human HCT-116 cells assessed as accumulation at G1/G0 phase at 0.4 uM incubated for 24 hrs by PI staining based flow cytometry (reference value: 58.29 +/- 2.01 %); type: functional
[9] = Toxicity in Sprague-Dawley rat allografted with rat C6 cells assessed as obvious signs of toxicity at 70 mg/kg/day, po treated for 2 weeks; type: organism-based; settings: in vivo, 336 h
HCT-116 [10] = test: Induction of apoptosis in human HCT-116 cells assessed as early apoptotic cells at 0.8 uM incubated for 24 hrs by PI staining based flow cytometry (reference value: 0.19 %); type: functional
HT-29 = test: Antiproliferative activity against human HT-29 cells assessed as cell growth inhibition incubated for 48 hrs by MTT assay; type: functional, cell-based; settings: HT-29, 48 h
[11] = MRT (0 to infinity) in Sprague-Dawley rat at 10 mg/kg, po measured for 36 hrs by MRM analysis; type: ADME, organism-based; settings: in vivo
HCT-116 [12] = test: Antitumor activity against human HCT-116 cells xenografted in Balb/c-nu nude mouse at 35 mg/kg/day, po treated for 7 days consecutively relative to control; type: functional; settings: HCT-116, 168 h, time 7 day, read-out: TGI
[13] = Toxicity in Balb/c-nu nude mouse xenografted with human HCT-116 cells assessed as toxicity in liver at 35 to 70 mg/kg/day, po treated for 30 days by H and E staining based analysis; type: organism-based; settings: in vivo, 720 h, dose 35-70 mg/kg/day, time 30 day
[14] = Apparent volume of distribution in Sprague-Dawley rat at 10 mg/kg, po measured for 36 hrs by MRM analysis; type: ADME, organism-based; settings: in vivo
A549 = test: Antiproliferative activity against human A549 cells assessed as cell growth inhibition incubated for 48 hrs by MTT assay; type: functional, cell-based; settings: A549, 48 h
HeLa [15] = test: Induction of apoptosis in human HeLa cells assessed as total apoptotic cells at 3.6 uM incubated for 24 hrs by PI staining based flow cytometry (reference value: 4.65 %); type: functional
[16] = Toxicity in Balb/c-nu nude mouse xenografted with human HCT-116 cells assessed as toxicity in heart at 35 to 70 mg/kg/day, po treated for 30 days by H and E staining based analysis; type: organism-based; settings: in vivo, 720 h, dose 35-70 mg/kg/day, time 30 day
HeLa [17] = test: Antiproliferative activity against human HeLa cells assessed as cell growth inhibition incubated for 48 hrs by MTT assay; type: functional, cell-based
HeLa [18] = test: Induction of cell cycle arrest in human HeLa cells assessed as accumulation at G1/G0 phase at 3.6 uM incubated for 24 hrs by PI staining based flow cytometry (reference value: 57.63 +/- 1.7 %); type: functional
[19] = Cmax in Sprague-Dawley rat at 2 mg/kg, iv measured for 36 hrs by MRM analysis; type: ADME, organism-based; settings: in vivo
HeLa [20] = test: Induction of apoptosis in human HeLa cells assessed as increase in p53 level upto 3.6 uM incubated for 24 hrs by Western blot analysis; type: functional, cell-based
HCT-116 [21] = test: Induction of apoptosis in human HCT-116 cells assessed as necrotic cells at 0.8 uM incubated for 24 hrs by PI staining based flow cytometry (reference value: 18.9 %); type: functional
HCT-116 [22] = test: Induction of cell cycle arrest in human HCT-116 cells assessed as accumulation at sub-G1 phase at 0.2 uM incubated for 24 hrs by PI staining based flow cytometry (reference value: 2.45 +/- 0.49 %); type: functional
C6 = test: Antitumor activity against rat C6 cells allografted in Sprague-Dawley rat at 70 mg/kg/day, po treated for 2 weeks relative to control; type: functional; settings: C6, 336 h, read-out: TGI
HeLa [23] = test: Induction of apoptosis in human HeLa cells assessed as early apoptotic cells at 0.9 uM incubated for 24 hrs by PI staining based flow cytometry (reference value: 0.8 %); type: functional
HCT-116 [24] = test: Induction of cell cycle arrest in human HCT-116 cells assessed as accumulation at G2/M phase at 0.2 uM incubated for 24 hrs by PI staining based flow cytometry (reference value: 20.6 +/- 3.38 %); type: functional
[25] = molecular target: Cyclin-dependent kinase 2 (Homo sapiens) (UniProt P24941); test: Inhibition of CDK2 in human HCT-116 cells assessed as reduction in Rb phosphorylation at Ser780 incubated for 24 hr s by Western blot analysis; type: cell-based; settings: dose <= 0.8 µM
HCT-116 [26] = test: Induction of cell cycle arrest in human HCT-116 cells assessed as accumulation at G2/M phase at 0.4 uM incubated for 24 hrs by PI staining based flow cytometry (reference value: 20.6 +/- 3.38 %); type: functional
HCT-116 [27] = test: Induction of cell cycle arrest in human HCT-116 cells assessed as accumulation at sub-G1 phase at 0.8 uM incubated for 24 hrs by PI staining based flow cytometry (reference value: 2.45 +/- 0.49 %); type: functional
MDA-MB-231 = test: Antiproliferative activity against human MDA-MB-231 cells assessed as cell growth inhibition incubated for 48 hrs by MTT assay; type: functional, cell-based; settings: MDA-MB-231, 48 h
HCT-116 [28] = test: Induction of cell cycle arrest in human HCT-116 cells assessed as accumulation at G2/M phase at 0.8 uM incubated for 24 hrs by PI staining based flow cytometry (reference value: 20.6 +/- 3.38 %); type: functional
HeLa [29] = test: Induction of cell cycle arrest in human HeLa cells assessed as accumulation at sub-G1 phase at 1.8 uM incubated for 24 hrs by PI staining based flow cytometry (reference value: 1.89 +/- 0.56 %); type: functional
HeLa [30] = test: Induction of cell cycle arrest at G2/M phase in human HeLa cells assessed as decrease in cyclin B1 level at 1.8 uM by Western blot analysis; type: functional, cell-based; settings: time <= 48.0 hrs
[31] = molecular target: Cyclin-dependent kinase 2 (Homo sapiens) (UniProt P24941); test: Inhibition of CDK2 in human HCT-116 cells assessed as reduction in Rb phosphorylation at Ser807/811 incubated for 24 hr s by Western blot analysis; type: cell-based; settings: dose <= 0.8 µM

Chain of Cyclin-dependent kinase 5/CDK5 activator 1 (Q00535 whole entry): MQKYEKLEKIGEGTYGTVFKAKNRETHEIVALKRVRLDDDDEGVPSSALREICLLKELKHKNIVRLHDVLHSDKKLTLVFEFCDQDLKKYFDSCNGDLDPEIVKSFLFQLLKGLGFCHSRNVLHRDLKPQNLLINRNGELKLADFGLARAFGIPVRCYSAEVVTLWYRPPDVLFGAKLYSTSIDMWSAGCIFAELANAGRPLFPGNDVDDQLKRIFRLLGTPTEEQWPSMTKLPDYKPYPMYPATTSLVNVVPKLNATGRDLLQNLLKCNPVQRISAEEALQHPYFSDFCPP
Chain of Cyclin-dependent kinase 5/CDK5 activator 1 (Q15078 whole entry, further chain): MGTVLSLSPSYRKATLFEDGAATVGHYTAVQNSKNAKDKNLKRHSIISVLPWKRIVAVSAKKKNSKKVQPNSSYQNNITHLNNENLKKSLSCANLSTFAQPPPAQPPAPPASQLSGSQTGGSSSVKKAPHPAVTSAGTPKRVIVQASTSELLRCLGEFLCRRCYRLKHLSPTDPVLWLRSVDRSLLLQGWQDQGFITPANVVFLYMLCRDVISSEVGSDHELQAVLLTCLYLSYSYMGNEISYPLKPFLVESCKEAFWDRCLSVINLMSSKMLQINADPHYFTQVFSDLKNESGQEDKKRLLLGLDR

Tmax [2]: 0.2 h
AUC(0-t) at 36 h [5]: 143 ng·h/mL
MRT last at 36 h [6]: 6.5 h
IC50 [7]: 119 nM
IC50 (HT-29): 3620 nM
MRT inf [11]: 7 h
Vz [14]: 398.7 L/kg
IC50 (A549): > 30000 nM
IC50 (HeLa [17]): 1840 nM
Cmax [19]: 29.1 ng/mL
inhibition [25]: Dose-dependent-effect
IC50 (MDA-MB-231): 928 nM
inhibition [31]: Dose-dependent-effect
SMILES: Cc1cnc(Nc2ccc(S(N)(=O)=O)cc2)nc1Nc1nccs1
Activity (HeLa [1]): 0.81%
Activity (HeLa [3]): 50.55%
Activity (HCT-116 [4]): Dose-dependent-effect
Activity (HCT-116 [8]): 44.9%
Activity [9]: Non-toxic
Activity (HCT-116 [10]): 15.5%
inhibition in vivo at 35 mg/kg/day (HCT-116 [12]): 39%
Activity [13]: Non-toxic
Activity (HeLa [15]): 88.3%
Activity [16]: Non-toxic
Activity (HeLa [18]): 39.16%
Activity (HeLa [20]): Active
Activity (HCT-116 [21]): 4%
Activity (HCT-116 [22]): 0.56%
inhibition in vivo at 70 mg/kg/day (C6): 86%
Activity (HeLa [23]): 65.8%
Activity (HCT-116 [24]): 24.4%
Activity (HCT-116 [26]): 33.27%
Activity (HCT-116 [27]): 1.71%
Activity (HCT-116 [28]): 37.16%
Activity (HeLa [29]): 1.28%
Activity (HeLa [30]): Time-dependent-effect

From ChEMBL document CHEMBL6096697, “Structure-Guided Discovery of Novel N4-(Substituted Thiazol-2-yl)-N2-(4-Substituted phenyl)pyrimidine-2,4-Diamines as Potent CDK2 and CDK9 Dual Inhibitors with High Oral Bioavailability” (J Med Chem, 2025)
